Measurements from patent publication US9999619B2, “Piperidin-4-yl azetidine derivatives as JAK1 inhibitors” (Incyte Corporation, priority 2010, dated 2018).

Assays:
Format in all cases: biochemical
[1] = molecular target: human JAK1 (a.a. 837-1142) (Homo sapiens, UniProt P23458); assay: In vitro JAK kinase assay (HTRF, phosphorylation of a biotinylated peptide), JAK1; conditions: measured at 1 mM ATP
Summary of the method: (§1)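 N-terminal His-tagged catalytic domains, baculovirus-expressed in insect cells, phosphorylated a biotinylated peptide for 1 hr at room temperature. EDTA stop was followed by SA-APC and Eu-Py20 antibody for 40 minutes, with phosphopeptide read by HTRF.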

[2] = molecular target: human JAK1 (a.a. 837-1142); assay: as above; conditions: ratio of JAK2 IC50 to JAK1 IC50, measured at 1 mM ATP
Summary of the method: as §1

Jak2 (a.a. 828-1132) = Jak2 (a.a. 828-1132) (Homo sapiens (Human), UniProt O60674); assay: In vitro JAK kinase assay (HTRF, phosphorylation of a biotinylated peptide), JAK2; conditions: measured at 1 mM ATP
Chain of Jak2 (a.a. 828-1132) (O60674 828-1132): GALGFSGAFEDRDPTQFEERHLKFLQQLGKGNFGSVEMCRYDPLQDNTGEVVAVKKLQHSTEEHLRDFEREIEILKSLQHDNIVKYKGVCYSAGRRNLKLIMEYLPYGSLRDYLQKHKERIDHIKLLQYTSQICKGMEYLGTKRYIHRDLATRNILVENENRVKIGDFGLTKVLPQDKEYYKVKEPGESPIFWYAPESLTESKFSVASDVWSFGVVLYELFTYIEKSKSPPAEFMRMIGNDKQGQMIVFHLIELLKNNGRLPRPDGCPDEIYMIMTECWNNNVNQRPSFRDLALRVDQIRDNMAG
Summary of the method: as §1

| SMILES | IC50 [1] | IC50 Ratio JAK2/JAK1 [2] | IC50 (Jak2 (a.a. 828-1132)) |
| --- | --- | --- | --- |
| Cc1cc(C)c(CC(=O)N2CCC(N3CC(CC#N)(n4cc(-c5ncnc6[nH]ccc56)cn4)C3)CC2)c(C)c1 [Example 113, {1-[1-(mesitylacetyl)piperidin-4-yl]-3-[4-(7H-pyrrolo[2,3-d]pyrimidin-4-yl)-1H-pyrazol-1-yl]azetidin-3-yl}acetonitrile] | 20 to 30 nM | 4.2 | 50 to 100 nM |
| N#CCC1(n2cc(-c3ncnc4[nH]ccc34)cn2)CN(C2CCN(C(=O)c3ccc(-c4ccccc4)cc3)CC2)C1 [Example 114, {1-[1-(biphenyl-4-ylcarbonyl)piperidin-4-yl]-3-[4-(7H-pyrrolo[2,3-d]pyrimidin-4-yl)-1H-pyrazol-1-yl]azetidin-3-yl}acetonitrile] | 5 to 20 nM | 1.5 | 10 to 50 nM |
| N#CCC1(n2cc(-c3ncnc4[nH]ccc34)cn2)CN(C2CCN(C(=O)c3ccc(-c4ccc5cnccc5c4)c(F)c3)CC2)C1 [Example 115, {1-[1-(3-fluoro-4-isoquinolin-6-ylbenzoyl)piperidin-4-yl]-3-[4-(7H-pyrrolo[2,3-d]pyrimidin-4-yl)-1H-pyrazol-1-yl]azetidin-3-yl}acetonitrile] | ≤ 5 nM | 15.7 | 10 to 50 nM |
| N#CCC1(n2cc(-c3ncnc4[nH]ccc34)cn2)CN(C2CCN(C(=O)c3c(F)cc(-c4cccnc4)cc3F)CC2)C1 [Example 116, {1-[1-(2,6-difluoro-4-pyridin-3-ylbenzoyl)piperidin-4-yl]-3-[4-(7H-pyrrolo[2,3-d]pyrimidin-4-yl)-1H-pyrazol-1-yl]azetidin-3-yl}acetonitrile] | ≤ 5 nM | 10.6 | 10 to 50 nM |
| N#CCC1(n2cc(-c3ncnc4[nH]ccc34)cn2)CN(C2CCN(C(=O)c3ccc(-c4ccncc4)c(F)c3)CC2)C1 [Example 117, {1-[1-(3-fluoro-4-pyridin-4-ylbenzoyl)piperidin-4-yl]-3-[4-(7H-pyrrolo[2,3-d]pyrimidin-4-yl)-1H-pyrazol-1-yl]azetidin-3-yl}acetonitrile] | ≤ 5 nM | 10.0 | 10 to 50 nM |
| N#CCC1(n2cc(-c3ncnc4[nH]ccc34)cn2)CN(C2CCN(C(=O)c3ccc(-c4ccc(C#N)cc4)c(F)c3)CC2)C1 [Example 118, 4′-[(4-{3-(cyanomethyl)-3-[4-(7H-pyrrolo[2,3-d]pyrimidin-4-yl)-1H-pyrazol-1-yl]azetidin-1-yl}piperidin-1-yl)carbonyl]-2′-fluorobiphenyl-4-carbonitrile] | ≤ 5 nM | 21.5 | 10 to 50 nM |
| N#CCC1(n2cc(-c3ncnc4[nH]ccc34)cn2)CN(C2CCN(C(=O)c3ccc(-c4ccc(C#N)c(F)c4)c(F)c3)CC2)C1 [Example 119, 4′-[(4-{3-(cyanomethyl)-3-[4-(7H-pyrrolo[2,3-d]pyrimidin-4-yl)-1H-pyrazol-1-yl]azetidin-1-yl}piperidin-1-yl)carbonyl]-2′,3-difluorobiphenyl-4-carbonitrile] | ≤ 5 nM | 14.0 | 10 to 50 nM |
| N#CCC1(n2cc(-c3ncnc4[nH]ccc34)cn2)CN(C2CCN(C(=O)c3ccc(-c4cccnc4)c(F)c3)CC2)C1 [Example 123, {1-[1-(3-fluoro-4-pyridin-3-ylbenzoyl)piperidin-4-yl]-3-[4-(7H-pyrrolo[2,3-d]pyrimidin-4-yl)-1H-pyrazol-1-yl]azetidin-3-yl}acetonitrile] | ≤ 5 nM | 3.8 | ≤ 10 nM |
| N#CCC1(n2cc(-c3ncnc4[nH]ccc34)cn2)CN(C2CCN(C(=O)c3ccc(-c4ccccc4C#N)c(F)c3)CC2)C1 [Example 124, 4′-[(4-{3-(cyanomethyl)-3-[4-(7H-pyrrolo[2,3-d]pyrimidin-4-yl)-1H-pyrazol-1-yl]azetidin-1-yl}piperidin-1-yl)carbonyl]-2′-fluorobiphenyl-2-carbonitrile] | ≤ 5 nM | 8.4 | ≤ 10 nM |
| N#CCC1(n2cc(-c3ncnc4[nH]ccc34)cn2)CN(C2CCN(C(=O)c3ccc(-c4cccc(C#N)c4)c(F)c3)CC2)C1 [Example 125, 4′-[(4-{3-(cyanomethyl)-3-[4-(7H-pyrrolo[2,3-d]pyrimidin-4-yl)-1H-pyrazol-1-yl]azetidin-1-yl}piperidin-1-yl)carbonyl]-2′-fluorobiphenyl-3-carbonitrile] | ≤ 5 nM | 8.1 | 10 to 50 nM |
| N#CCC1(n2cc(-c3ncnc4[nH]ccc34)cn2)CN(C2CCN(C(=O)c3ccc(-c4ccc(C#N)cc4)cc3)CC2)C1 [Example 126, 4′-[(4-{3-(cyanomethyl)-3-[4-(7H-pyrrolo[2,3-d]pyrimidin-4-yl)-1H-pyrazol-1-yl]azetidin-1-yl}piperidin-1-yl)carbonyl]biphenyl-4-carbonitrile] | ≤ 5 nM | 6.3 | 10 to 50 nM |
| N#CCC1(n2cc(-c3ncnc4[nH]ccc34)cn2)CN(C2CCN(C(=O)c3ccc(-c4ccc(F)c(F)c4)c(F)c3)CC2)C1 [Example 127, (3-[4-(7H-pyrrolo[2,3-d]pyrimidin-4-yl)-1H-pyrazol-1-yl]-1-{1-[(2,3′,4′-trifluorobiphenyl-4-yl)carbonyl]piperidin-4-yl}azetidin-3-yl)acetonitrile] | 5 to 20 nM | 4.3 | 10 to 50 nM |
| N#CCC1(n2cc(-c3ncnc4[nH]ccc34)cn2)CN(C2CCN(C(=O)c3ccc(-c4cc(F)cc(C#N)c4)c(F)c3)CC2)C1 [Example 128, 4′-[(4-{3-(cyanomethyl)-3-[4-(7H-pyrrolo[2,3-d]pyrimidin-4-yl)-1H-pyrazol-1-yl]azetidin-1-yl}piperidin-1-yl)carbonyl]-2′,5-difluorobiphenyl-3-carbonitrile] | ≤ 5 nM | 3.5 | 10 to 50 nM |
| N#CCC1(n2cc(-c3ncnc4[nH]ccc34)cn2)CN(C2CCN(C(=O)c3ccc(-c4cccc5ncccc45)c(F)c3)CC2)C1 [Example 129, {1-[1-(3-fluoro-4-quinolin-5-ylbenzoyl)piperidin-4-yl]-3-[4-(7H-pyrrolo[2,3-d]pyrimidin-4-yl)-1H-pyrazol-1-yl]azetidin-3-yl}acetonitrile] | ≤ 5 nM | 7.9 | ≤ 10 nM |
| N#CCC1(n2cc(-c3ncnc4[nH]ccc34)cn2)CN(C2CCN(C(=O)c3ccc(-c4cccc5cnccc45)c(F)c3)CC2)C1 [Example 130, {1-[1-(3-fluoro-4-isoquinolin-5-ylbenzoyl)piperidin-4-yl]-3-[4-(7H-pyrrolo[2,3-d]pyrimidin-4-yl)-1H-pyrazol-1-yl]azetidin-3-yl}acetonitrile] | ≤ 5 nM | 7.1 | ≤ 10 nM |
| N#CCC1(n2cc(-c3ncnc4[nH]ccc34)cn2)CN(C2CCN(C(=O)c3ccc(-c4cccc5ccncc45)c(F)c3)CC2)C1 [Example 131, {1-[1-(3-fluoro-4-isoquinolin-8-ylbenzoyl)piperidin-4-yl]-3-[4-(7H-pyrrolo[2,3-d]pyrimidin-4-yl)-1H-pyrazol-1-yl]azetidin-3-yl}acetonitrile] | ≤ 5 nM | 8.1 | 10 to 50 nM |
| N#CCC1(n2cc(-c3ncnc4[nH]ccc34)cn2)CN(C2CCN(C(=O)c3ccc(-c4ccc5ccncc5c4)c(F)c3)CC2)C1 [Example 133, {1-[1-(3-fluoro-4-isoquinolin-7-ylbenzoyl)piperidin-4-yl]-3-[4-(7H-pyrrolo[2,3-d]pyrimidin-4-yl)-1H-pyrazol-1-yl]azetidin-3-yl}acetonitrile] | ≤ 5 nM | 7.9 | 10 to 50 nM |
| N#CCC1(n2cc(-c3ncnc4[nH]ccc34)cn2)CN(C2CCN(C(=O)c3ccc(-c4ccc5cccnc5c4)c(F)c3)CC2)C1 [Example 134, {1-[1-(3-fluoro-4-quinolin-7-ylbenzoyl)piperidin-4-yl]-3-[4-(7H-pyrrolo[2,3-d]pyrimidin-4-yl)-1H-pyrazol-1-yl]azetidin-3-yl}acetonitrile] | ≤ 5 nM | 6.7 | 10 to 50 nM |
| N#CCC1(n2cc(-c3ncnc4[nH]ccc34)cn2)CN(C2CCN(C(=O)c3ccc(-c4ccc5nccn5c4)c(F)c3)CC2)C1 [Example 135, {1-[1-(3-fluoro-4-imidazo[1,2-a]pyridin-6-ylbenzoyl)piperidin-4-yl]-3-[4-(7H-pyrrolo[2,3-d]pyrimidin-4-yl)-1H-pyrazol-1-yl]azetidin-3-yl}acetonitrile] | ≤ 5 nM | 7.1 | 10 to 50 nM |
| N#CCC1(n2cc(-c3ncnc4[nH]ccc34)cn2)CN(C2CCN(C(=O)c3ccc(-c4nc5ccccc5o4)cc3)CC2)C1 [Example 136, {1-{1-[4-(1,3-benzoxazol-2-yl)benzoyl]piperidin-4-yl}-3-[4-(7H-pyrrolo[2,3-d]pyrimidin-4-yl)-1H-pyrazol-1-yl]azetidin-3-yl}acetonitrile] | 5 to 20 nM | 5.6 | > 100 nM |
| N#CCC1(n2cc(-c3ncnc4[nH]ccc34)cn2)CN(C2CCN(C(=O)c3ccc(-c4nc5ccccc5o4)c(F)c3)CC2)C1 [Example 137, {1-{1-[4-(1,3-benzoxazol-2-yl)-3-fluorobenzoyl]piperidin-4-yl}-3-[4-(7H-pyrrolo[2,3-d]pyrimidin-4-yl)-1H-pyrazol-1-yl]azetidin-3-y4}acetonitrile] | 20 to 30 nM | 6.0 | > 100 nM |
| N#CCC1(n2cc(-c3ncnc4[nH]ccc34)cn2)CN(C2CC3CCC(C2)N3C(=O)c2cc(F)cc(C#N)c2)C1 (stereo not drawn) [Example 138, 3-[(3-{3-(Cyanomethyl)-3-[4-(7H-pyrrolo[2,3-d]pyrimidin-4-yl)-1H-pyrazol-1-yl]azetidin-1-yl}-8-azabicyclo[3.2.1]oct-8-yl)carbonyl]-5-fluorobenzonitrile] | ≤ 5 nM | 13.9 | ≤ 10 nM |
